Measurements as given in patent publication US20020137929A1, “1 - (3-heterocyclylphenyl) isothiourea, -isourea, -guanidine and -amidine herbicidal agents” (Intellectual Property Department, BASF Aktiengesellschaft, priority 1998, published 2002).

What was measured:
ZEAMX (Corn, Field) = test: Postemergence herbicidal evaluation; type: in vivo, Zea mays; conditions: for ZEAMX herbicidal rating: postemergence
Outline: (§1)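 Scores (0–9) reflect plant stand, vigor, malformation, size, chlorosis and general appearance relative to control, read 4 to 5 weeks after treatment and averaged where tests were repeated. Application: about 0.0156–0.500 kg/ha sprayed at 40 psi onto two-week seedlings.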

[1] = tested on: GLXMAW (Soybean, Williams); test: Postemergence herbicidal evaluation; type: in vivo, Glycine max, (L.) Merr. cv Williams; conditions: for GLXMAW herbicidal rating: postemergence
Outline: as §1

CASOB (Sicklepod) = test: Preemergence herbicidal evaluation; type: in vivo, Cassia obtusifolia; conditions: rated 4-5 weeks after treatment; for CASOB rating: preemergence, 0-9 scale
Outline: (§2)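 Steps: mix seeds into potting soil; plant atop ~1 inch soil; spray compound in aqueous acetone (~0.0156-0.500 kg/ha equivalent); maintain in greenhouse with watering; rate visually 0-9 versus control at 4-5 weeks.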

GALAP (Galium) = test: Preemergence herbicidal evaluation; type: in vivo, Galium aparine; conditions: rated 4-5 weeks after treatment; for GALAP rating: preemergence, 0-9 scale
Outline: as §2

ABUTH (Velvetleaf) = test: Preemergence herbicidal evaluation; type: in vivo, Abutilon theophrasti; conditions: rated 4-5 weeks after treatment; for ABUTH rating: preemergence, 0-9 scale
Outline: as §2

[2] = tested on: GLXMAW (Soybean, Williams); test: Preemergence herbicidal evaluation; type: in vivo, Glycine max, (L.) Merr. cv Williams; conditions: rated 4-5 weeks after treatment; for GLXMAW rating: preemergence, 0-9 scale
Outline: as §2

SETVI (Foxtail, Green) = test: Preemergence herbicidal evaluation; type: in vivo, Setaria viridis; conditions: rated 4-5 weeks after treatment; for SETVI rating: preemergence, 0-9 scale
Outline: as §2

[3] = tested on: ECHORC (Watergrass (Calif.)); test: Postemergence weed control under flooded paddy conditions; type: in vivo, Echinochloa oryzoides; conditions: postemergence weeds
Outline: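 Injury ratings (0–9 scale covering stand, vigor, malformation, size, chlorosis and overall appearance versus control) were made three to four weeks after treatment. Test material, about 0.0313 to 0.500 kg/ha a.i. in 50/50 v/v aqueous/acetone, was added to flood water 1.5 to 3 cm deep over 3 to 5 cm weeds and 1.5 to 2.5 leaf rice.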

[4] = tested on: SAGPY (Arrowhead (Pygmaea)); test: Preemergence weed control under flooded paddy conditions; type: in vivo, Sagittaria pygmaea; conditions: rated 3-4 weeks after treatment
Outline: (§3)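 Visual injury scored 0-9 against control three to four weeks post-treatment, greenhouse-grown. Application: acetone/water (50/50) solutions dosed directly into flood water (1.5-3 cm over silt loam, planted top 0.5 cm), roughly 0.0313 to 0.500 kg/ha active ingredient.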

[5] = tested on: IPOHE (Morningglory, Ivyleaf); test: Postemergence herbicidal evaluation; type: in vivo, Ipomoea hederacea; conditions: for IPOHE herbicidal rating: postemergence
Outline: as §1

CYPSE (Flatsedge) = test: Preemergence weed control under flooded paddy conditions; type: in vivo, Cyperus serotinus; conditions: rated 3-4 weeks after treatment
Outline: as §3

AMBEL (Ragweed, Common) [6] = test: Postemergence herbicidal evaluation; type: in vivo, Ambrosia artemisifolia; conditions: for AMBEL herbicidal rating: postemergence
Outline: as §1

AMBEL (Ragweed, Common) [7] = test: Preemergence herbicidal evaluation; type: in vivo, Ambrosia artemisifolia; conditions: rated 4-5 weeks after treatment; for AMBEL rating: preemergence, 0-9 scale
Outline: as §2

ECHCG (Barnyardgrass) = test: Preemergence herbicidal evaluation; type: in vivo, Echinochloa crus-galli; conditions: rated 4-5 weeks after treatment; for ECHCG rating: preemergence, 0-9 scale
Outline: as §2

CCOC(=O)CN1C(=O)C(Cc2ccccc2OC)SC1=Nc1cc(-n2c(=O)cc(C(F)(F)F)n(C)c2=O)c(F)cc1Cl (centres unmarked) [Compound 37, Ethyl 2-{{2-chloro-5-[3,6-dihydro-3-methyl-2,6-dioxo-4-(trifluoromethyl)-1(2H)-pyrimidinyl]-4-fluorophenyl}imino}-5-(o-methoxybenzyl)-4-oxo-3-thiazolidineacetate]
Postemergence herbicidal rating ZEAMX (ZEAMX (Corn, Field); Rate 0.0158 kg/ha): 3.5 | Postemergence herbicidal rating ZEAMX (ZEAMX (Corn, Field); Rate 0.0315 kg/ha): 4.0 | Postemergence herbicidal rating ZEAMX (ZEAMX (Corn, Field); Rate 0.0630 kg/ha): 4.0 | Postemergence herbicidal rating GLXMAW ([1]; Rate 0.0158 kg/ha): 4.5 | Postemergence herbicidal rating GLXMAW ([1]; Rate 0.0315 kg/ha): 5.0 | Postemergence herbicidal rating GLXMAW ([1]; Rate 0.0630 kg/ha): 5.0 | Preemergence herbicidal rating CASOB (CASOB (Sicklepod); rate 0.1250 kg/ha): 0.0 | Preemergence herbicidal rating CASOB (CASOB (Sicklepod); rate 0.2500 kg/ha): 0.0 | Preemergence herbicidal rating GALAP (GALAP (Galium); rate 0.1250 kg/ha): 0.0 | Preemergence herbicidal rating GALAP (GALAP (Galium); rate 0.2500 kg/ha): 9.0 | Preemergence herbicidal rating ABUTH (ABUTH (Velvetleaf); rate 0.1250 kg/ha): 0.0 | Preemergence herbicidal rating ABUTH (ABUTH (Velvetleaf); rate 0.2500 kg/ha): 3.0 | Preemergence herbicidal rating GLXMAW ([2]; rate 0.1250 kg/ha): 0.0 | Preemergence herbicidal rating GLXMAW ([2]; rate 0.2500 kg/ha): 0.0 | Preemergence herbicidal rating SETVI (SETVI (Foxtail, Green); rate 0.1250 kg/ha): 0.0 | Preemergence herbicidal rating SETVI (SETVI (Foxtail, Green); rate 0.2500 kg/ha): 0.0 | Herbicidal rating ECHORC ([3]; rate 0.0313 kg/ha, 3-4 weeks after treatment): 4.0 | Herbicidal rating ECHORC ([3]; rate 0.0625 kg/ha, 3-4 weeks after treatment): 6.0 | Herbicidal rating ECHORC ([3]; rate 0.1250 kg/ha, 3-4 weeks after treatment): 7.0 | Herbicidal rating ECHORC ([3]; rate 0.2500 kg/ha, 3-4 weeks after treatment): 7.0 | Herbicidal rating SAGPY ([4]; 0.0313 kg/ha): 0.0 | Herbicidal rating SAGPY ([4]; 0.0625 kg/ha): 0.0 | Herbicidal rating SAGPY ([4]; 0.1250 kg/ha): 0.0 | Herbicidal rating SAGPY ([4]; 0.2500 kg/ha): 3.0 | Postemergence herbicidal rating IPOHE ([5]; Rate 0.0158 kg/ha): 9.0 | Postemergence herbicidal rating IPOHE ([5]; Rate 0.0315 kg/ha): 9.0 | Postemergence herbicidal rating IPOHE ([5]; Rate 0.0630 kg/ha): 9.0 | Herbicidal rating CYPSE (CYPSE (Flatsedge); 0.0313 kg/ha): 0.0 | Herbicidal rating CYPSE (CYPSE (Flatsedge); 0.0625 kg/ha): 0.0 | Herbicidal rating CYPSE (CYPSE (Flatsedge); 0.1250 kg/ha): 0.0 | Herbicidal rating CYPSE (CYPSE (Flatsedge); 0.2500 kg/ha): 0.0 | Postemergence herbicidal rating AMBEL (AMBEL (Ragweed, Common) [6]; Rate 0.0158 kg/ha): 3.0 | Postemergence herbicidal rating AMBEL (AMBEL (Ragweed, Common) [6]; Rate 0.0315 kg/ha): 9.0 | Postemergence herbicidal rating AMBEL (AMBEL (Ragweed, Common) [6]; Rate 0.0630 kg/ha): 9.0 | Preemergence herbicidal rating AMBEL (AMBEL (Ragweed, Common) [7]; rate 0.1250 kg/ha): 0.0 | Preemergence herbicidal rating AMBEL (AMBEL (Ragweed, Common) [7]; rate 0.2500 kg/ha): 0.0 | Preemergence herbicidal rating ECHCG (ECHCG (Barnyardgrass); rate 0.1250 kg/ha): 0.0 | Preemergence herbicidal rating ECHCG (ECHCG (Barnyardgrass); rate 0.2500 kg/ha): 0.0

CCOC(=O)CN1C(=O)C(CC(=O)NOC)SC1=Nc1cc(-n2c(=O)cc(C(F)(F)F)n(C)c2=O)c(F)cc1Cl (centres unmarked) [Compound 83, Ethyl 2-{{2-chloro-5-[3,6-dihydro-3-methyl-2,6-dioxo-4-(trifluoromethyl)-1(2H)-pyrimidinyl]-4-fluorophenyl}imino}-5-[(methoxycarbamoyl)methyl]-4-oxo-3-thiazolidineacetate]
ZEAMX herbicidal rating (ZEAMX (Corn, Field); rate 0.0156 kg/ha): 4.5 | ZEAMX herbicidal rating (ZEAMX (Corn, Field); rate 0.0313 kg/ha): 7.5 | ZEAMX herbicidal rating (ZEAMX (Corn, Field); rate 0.0625 kg/ha): 7.5 | ZEAMX herbicidal rating (ZEAMX (Corn, Field); rate 0.1250 kg/ha): 7.5 | GLXMAW herbicidal rating ([1]; rate 0.0156 kg/ha): 4.5 | GLXMAW herbicidal rating ([1]; rate 0.0313 kg/ha): 6.5 | GLXMAW herbicidal rating ([1]; rate 0.0625 kg/ha): 8.0 | GLXMAW herbicidal rating ([1]; rate 0.1250 kg/ha): 8.5 | CASOB rating (CASOB (Sicklepod); 0.0156 kg/ha): 0.0 | CASOB rating (CASOB (Sicklepod); 0.0313 kg/ha): 0.0 | CASOB rating (CASOB (Sicklepod); 0.0625 kg/ha): 0.0 | CASOB rating (CASOB (Sicklepod); 0.1250 kg/ha): 0.0 | CASOB rating (CASOB (Sicklepod); 0.2500 kg/ha): 3.0 | CASOB rating (CASOB (Sicklepod); 0.5000 kg/ha): 3.0 | GALAP rating (GALAP (Galium); 0.0156 kg/ha): 0.0 | GALAP rating (GALAP (Galium); 0.0313 kg/ha): 0.0 | GALAP rating (GALAP (Galium); 0.0625 kg/ha): 0.0 | GALAP rating (GALAP (Galium); 0.1250 kg/ha): 0.0 | GALAP rating (GALAP (Galium); 0.2500 kg/ha): 9.0 | GALAP rating (GALAP (Galium); 0.5000 kg/ha): 9.0 | ABUTH rating (ABUTH (Velvetleaf); 0.0156 kg/ha): 4.0 | ABUTH rating (ABUTH (Velvetleaf); 0.0313 kg/ha): 6.0 | ABUTH rating (ABUTH (Velvetleaf); 0.0625 kg/ha): 9.0 | ABUTH rating (ABUTH (Velvetleaf); 0.1250 kg/ha): 9.0 | ABUTH rating (ABUTH (Velvetleaf); 0.2500 kg/ha): 9.0 | ABUTH rating (ABUTH (Velvetleaf); 0.5000 kg/ha): 9.0 | GLXMAW rating ([2]; 0.0156 kg/ha): 0.0 | GLXMAW rating ([2]; 0.0313 kg/ha): 0.0 | GLXMAW rating ([2]; 0.0625 kg/ha): 0.0 | GLXMAW rating ([2]; 0.1250 kg/ha): 0.0 | GLXMAW rating ([2]; 0.2500 kg/ha): 5.0 | GLXMAW rating ([2]; 0.5000 kg/ha): 7.0 | SETVI rating (SETVI (Foxtail, Green); 0.0156 kg/ha): 0.0 | SETVI rating (SETVI (Foxtail, Green); 0.0313 kg/ha): 0.0 | SETVI rating (SETVI (Foxtail, Green); 0.0625 kg/ha): 0.0 | SETVI rating (SETVI (Foxtail, Green); 0.1250 kg/ha): 2.0 | SETVI rating (SETVI (Foxtail, Green); 0.2500 kg/ha): 9.0 | SETVI rating (SETVI (Foxtail, Green); 0.5000 kg/ha): 9.0 | Herbicidal rating ECHORC ([3]; Rate 0.0313 kg/ha, rated 3 to 4 weeks after treatment): 5.0 | Herbicidal rating ECHORC ([3]; Rate 0.0625 kg/ha, rated 3 to 4 weeks after treatment): 6.0 | Herbicidal rating ECHORC ([3]; Rate 0.1250 kg/ha, rated 3 to 4 weeks after treatment): 7.0 | Herbicidal rating ECHORC ([3]; Rate 0.2500 kg/ha, rated 3 to 4 weeks after treatment): 7.0 | SAGPY herbicidal effect rating ([4]; 0.0313 kg/ha): 7.0 | SAGPY herbicidal effect rating ([4]; 0.0625 kg/ha): 7.0 | SAGPY herbicidal effect rating ([4]; 0.1250 kg/ha): 7.0 | SAGPY herbicidal effect rating ([4]; 0.2500 kg/ha): 9.0 | IPOHE herbicidal rating ([5]; rate 0.0156 kg/ha): 9.0 | IPOHE herbicidal rating ([5]; rate 0.0313 kg/ha): 9.0 | IPOHE herbicidal rating ([5]; rate 0.0625 kg/ha): 9.0 | IPOHE herbicidal rating ([5]; rate 0.1250 kg/ha): 9.0 | CYPSE herbicidal effect rating (CYPSE (Flatsedge); 0.0313 kg/ha): 0.0 | CYPSE herbicidal effect rating (CYPSE (Flatsedge); 0.1250 kg/ha): 3.0 | CYPSE herbicidal effect rating (CYPSE (Flatsedge); 0.2500 kg/ha): 5.0 | AMBEL herbicidal rating (AMBEL (Ragweed, Common) [6]; rate 0.0156 kg/ha): 9.0 | AMBEL herbicidal rating (AMBEL (Ragweed, Common) [6]; rate 0.0313 kg/ha): 9.0 | AMBEL herbicidal rating (AMBEL (Ragweed, Common) [6]; rate 0.0625 kg/ha): 9.0 | AMBEL herbicidal rating (AMBEL (Ragweed, Common) [6]; rate 0.1250 kg/ha): 9.0 | AMBEL rating (AMBEL (Ragweed, Common) [7]; 0.0156 kg/ha): 0.0 | AMBEL rating (AMBEL (Ragweed, Common) [7]; 0.0313 kg/ha): 0.0 | AMBEL rating (AMBEL (Ragweed, Common) [7]; 0.0625 kg/ha): 0.0 | AMBEL rating (AMBEL (Ragweed, Common) [7]; 0.1250 kg/ha): 9.0 | AMBEL rating (AMBEL (Ragweed, Common) [7]; 0.2500 kg/ha): 9.0 | AMBEL rating (AMBEL (Ragweed, Common) [7]; 0.5000 kg/ha): 9.0 | ECHCG rating (ECHCG (Barnyardgrass); 0.0156 kg/ha): 0.0 | ECHCG rating (ECHCG (Barnyardgrass); 0.0313 kg/ha): 0.0 | ECHCG rating (ECHCG (Barnyardgrass); 0.0625 kg/ha): 0.0 | ECHCG rating (ECHCG (Barnyardgrass); 0.1250 kg/ha): 0.0 | ECHCG rating (ECHCG (Barnyardgrass); 0.2500 kg/ha): 0.0 | ECHCG rating (ECHCG (Barnyardgrass); 0.5000 kg/ha): 4.0
